Assay results from patent US12534450B2, “Methods and compositions for targeting PD-L1” (Aligos Therapeutics, Inc., priority 2021, dated 2026).

target: PD-1/PD-L1 PPI (Homo sapiens, UniProt Q9NZQ7); experiment: PDL1/PD1 Binding Assay; conditions: PDL1-6×His 0.3 nM, PD1-Fc-Avi-Biotin 2.5 nM, Acceptor/Donor beads, Envision reader
Description: Compounds to be tested were serially diluted in DMSO, and further diluted in assay buffer (25 mM Hepes pH 7.4, 150 mM NaCl, 0.005% Tween 20, BSA 0.01%). Diluted compounds were added to the wells with final concentration of DMSO at 1%. PDL1-6×His protein was added to the wells, mixed well with compound. The plates were incubated for 30 min at room temperature. PD1-Fc-Avi-Biotin protein was added to the wells. Final concentration of PDL1 and PD1 protein is 0.3 nM and 2.5 nM, respectively. After a binding time of 30 min at room temperature, Anti-6×His Acceptor beads (final concentration 20 ug/ml) were added to the wells, and the incubation continued for 1 h. Streptavidin Donor beads (final concentration 20 ug/mL) were added at reduced light. The plates were sealed with foil and incubated in the dark for additional 1 h or overnight before reading on an Envision reader. The IC50 values were determined by fitting the curves using a four-parameter equation in Graphpad Prism 8.

Chain of PD-1/PD-L1 PPI (Q9NZQ7 19-238 limits assumed): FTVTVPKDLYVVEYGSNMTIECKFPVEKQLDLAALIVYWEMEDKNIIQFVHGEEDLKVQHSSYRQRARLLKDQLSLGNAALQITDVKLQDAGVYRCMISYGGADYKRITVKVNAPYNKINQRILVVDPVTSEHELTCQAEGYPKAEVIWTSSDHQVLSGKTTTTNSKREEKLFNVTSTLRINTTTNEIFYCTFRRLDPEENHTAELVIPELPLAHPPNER

| Compound | IC50 [nM] |
| --- | --- |
| COc1nc(-c2cccc(-c3cccc(NC(=O)c4cn(C)c(=O)n(C)c4=O)c3Cl)c2Cl)cc2c1[C@@H](NC[C@@H]1CCC(=O)N1)CC2 (single isomer, unassigned) [Compound A-1] | ≤ 10 |
| COc1nc(-c2cccc(-c3cccc(NC(=O)c4cn(C)c(=O)n(C)c4=O)c3C)c2Cl)cc2c1[C@@H](NC[C@@H]1CCC(=O)N1)CO2 (single isomer, unassigned) [Compound A-19] | ≤ 10 |
| COc1nc(-c2cccc(-c3cccc(NC(=O)c4cn(C)c(=O)n(C)c4=O)c3Cl)c2Cl)cc2c1[C@@H](N1CC3(CCC(=O)N3)C1)CC2 (single isomer, unassigned) [Compound A-20] | ≤ 10 |
| COc1nc(-c2cccc(-c3cccc(NC(=O)c4cn(C)c(=O)n(C)c4=O)c3Cl)c2Cl)cc2c1[C@@H](N1CC3(CCNC3=O)C1)CC2 (single isomer, unassigned) [Compound A-21] | ≤ 10 |
| COc1nc(-c2cccc(-c3cccc(NC(=O)c4cn(C)c(=O)n(C)c4=O)c3Cl)c2Cl)cc2c1[C@H](N1CC3(CCNC3=O)C1)CC2 (single isomer, unassigned) [Compound A-22] | ≤ 10 |
| COc1nc(-c2cccc(-c3cccc(NC(=O)c4cn(C)c(=O)n(C)c4=O)c3Cl)c2Cl)cc2c1[C@H](N1CC3(CN(C(C)=O)C3)C1)CC2 (single isomer, unassigned) [Compound A-23] | ≤ 10 |
| COc1nc(-c2cccc(-c3cccc(NC(=O)c4cn(C)c(=O)n(C)c4=O)c3Cl)c2Cl)cc2c1[C@@H](N1CC(OC)C1)CC2 (single isomer, unassigned) [Compound A-24] | ≤ 10 |
| COc1nc(-c2cccc(-c3cccc(NC(=O)c4cn(C)c(=O)n(C)c4=O)c3Cl)c2Cl)cc2c1[C@@H](N1CC(O)C1)CC2 (single isomer, unassigned) [Compound A-26] | ≤ 10 |
| COc1nc(-c2cccc(-c3cccc(NC(=O)c4cn(C)c(=O)n(C)c4=O)c3Cl)c2F)cc2c1[C@H](N[C@@H]1CCOC[C@@H]1O)CC2 (single isomer, unassigned) [Compound A-32] | ≤ 10 |
| COc1nc(-c2cccc(-c3cccc(NC(=O)c4cn(C)c(=O)n(C)c4=O)c3C)c2C)cc2c1[C@H](N[C@@H]1CCOC[C@@H]1O)CC2 (single isomer, unassigned) [Compound A-34] | ≤ 10 |
| COc1nc(-c2cccc(-c3cccc(NC(=O)c4cn(C)c(=O)n(C)c4=O)c3C)c2F)cc2c1[C@H](N[C@@H]1CCOC[C@@H]1O)CC2 (single isomer, unassigned) [Compound A-35] | ≤ 10 |
| COc1nc(-c2cccc(-c3cccc(NC(=O)c4cn(C)c(=O)n(C)c4=O)c3F)c2Cl)cc2c1[C@H](N[C@@H]1CCOC[C@@H]1O)CC2 (single isomer, unassigned) [Compound A-36] | ≤ 10 |
| COc1nc(-c2cccc(-c3cccc(NC(=O)c4cn(C)c(=O)n(C)c4=O)c3F)c2C)cc2c1[C@H](N[C@@H]1CCOC[C@@H]1O)CC2 (single isomer, unassigned) [Compound A-37] | ≤ 10 |
| COc1nc(-c2cccc(-c3cccc(NC(=O)c4cn(C)c(=O)n(C)c4=O)c3F)c2F)cc2c1[C@H](N[C@@H]1CCOC[C@@H]1O)CC2 (single isomer, unassigned) [Compound A-38] | ≤ 10 |
| COc1nc(-c2cccc(-c3cccc(NC(=O)c4cn(C)c(=O)n(C)c4=O)c3C)c2Cl)cc2c1[C@H](NC[C@@H]1CCC(=O)N1)CC2 [Compound A-10] | ≤ 10 |
| COc1nc(-c2cccc(-c3cccc(NC(=O)c4cn(C)c(=O)n(C)c4=O)c3F)c2Cl)cc2c1[C@H](NC[C@@H]1CCC(=O)N1)CC2 [Compound A-11] | ≤ 10 |
| COc1nc(-c2cccc(-c3cccc(NC(=O)c4cn(C)c(=O)n(C)c4=O)c3Cl)c2C)cc2c1[C@H](NC[C@@H]1CCC(=O)N1)CC2 [Compound A-12] | ≤ 10 |
| COc1nc(-c2cccc(-c3cccc(NC(=O)c4cn(C)c(=O)n(C)c4=O)c3C)c2C)cc2c1[C@H](NC[C@@H]1CCC(=O)N1)CC2 [Compound A-13] | ≤ 10 |
| COc1nc(-c2cccc(-c3cccc(NC(=O)c4cn(C)c(=O)n(C)c4=O)c3F)c2C)cc2c1[C@H](NC[C@@H]1CCC(=O)N1)CC2 [Compound A-14] | ≤ 10 |
| COc1nc(-c2cccc(-c3cccc(NC(=O)c4cn(C)c(=O)n(C)c4=O)c3Cl)c2F)cc2c1[C@H](NC[C@@H]1CCC(=O)N1)CC2 [Compound A-15] | ≤ 10 |
| COc1nc(-c2cccc(-c3cccc(NC(=O)c4cn(C)c(=O)n(C)c4=O)c3C)c2F)cc2c1[C@H](NC[C@@H]1CCC(=O)N1)CC2 [Compound A-16] | ≤ 10 |
| CCOC(=O)N(C[C@@H]1CCC(=O)N1)[C@H]1CCc2cc(-c3cccc(-c4cccc(NC(=O)c5cn(C)c(=O)n(C)c5=O)c4C)c3Cl)nc(OC)c21 [Compound E-1] | ≤ 10 |
| COc1nc(-c2cccc(-c3cccc(NC(=O)c4cn(C)c(=O)n(C)c4=O)c3C)c2Cl)cc2c1[C@@H](N(C[C@@H]1CCC(=O)N1)C(=O)OCc1oc(=O)oc1C)CC2 [Compound F-1] | ≤ 10 |

system: PD-1/PD-L1 interaction; experiment: PD-1/PD-L1 NFAT Reporter Assay (co-culture of Jurkat T cells overexpressing PD-1 and PD-L1 expressing CHO cells); type: cell-based; conditions: Homo sapiens, Jurkat, 6 h, co-culture 6 hrs at 37° C., NFAT-mediated luciferase activity
Description: Blocking the PD-1/PD-L1 interaction will release the inhibitory signal and results in TCR signaling and NFAT-mediated luciferase activity.
CHO cells expressing surface-bound anti-CD3 antibodies and PD-L1 were first seeded overnight and treated with the compounds. Jurkat cells overexpressing PD-1 and a luciferase construct under NFAT promoter were then immediately seeded on the monolayer of CHO cells. The co-culture was then incubated for 6 hrs at 37° C. Luciferase activity was assessed by adding the ONE-Glo reagent and measuring luminescence with a plate reader. EC50 values were determined from the fit of the dose-response curves.

| Compound | EC50 [nM] |
| --- | --- |
| COc1nc(-c2cccc(-c3cccc(NC(=O)c4cn(C)c(=O)n(C)c4=O)c3Cl)c2Cl)cc2c1[C@@H](NC[C@@H]1CCC(=O)N1)CC2 (single isomer, unassigned) [Compound A-1] | ≤ 10 |
| COc1nc(-c2cccc(-c3cccc(NC(=O)c4cn(C)c(=O)n(C)c4=O)c3C)c2Cl)cc2c1[C@@H](NC[C@@H]1CCC(=O)N1)CO2 (single isomer, unassigned) [Compound A-19] | 10 to 100 |
| COc1nc(-c2cccc(-c3cccc(NC(=O)c4cn(C)c(=O)n(C)c4=O)c3Cl)c2Cl)cc2c1[C@@H](N1CC3(CCC(=O)N3)C1)CC2 (single isomer, unassigned) [Compound A-20] | 10 to 100 |
| COc1nc(-c2cccc(-c3cccc(NC(=O)c4cn(C)c(=O)n(C)c4=O)c3Cl)c2Cl)cc2c1[C@@H](N1CC3(CCNC3=O)C1)CC2 (single isomer, unassigned) [Compound A-21] | 100 to 1000 |
| COc1nc(-c2cccc(-c3cccc(NC(=O)c4cn(C)c(=O)n(C)c4=O)c3Cl)c2Cl)cc2c1[C@H](N1CC3(CCNC3=O)C1)CC2 (single isomer, unassigned) [Compound A-22] | ≤ 10 |
| COc1nc(-c2cccc(-c3cccc(NC(=O)c4cn(C)c(=O)n(C)c4=O)c3Cl)c2Cl)cc2c1[C@H](N1CC3(CN(C(C)=O)C3)C1)CC2 (single isomer, unassigned) [Compound A-23] | ≤ 10 |
| COc1nc(-c2cccc(-c3cccc(NC(=O)c4nn(C)c(=O)n(C)c4=O)c3Cl)c2Cl)cc2c1[C@H](N1CC3(CN(C(C)=O)C3)C1)CC2 (single isomer, unassigned) [Compound A-71] | ≤ 10 |
| COc1nc(-c2cccc(-c3cccc(NC(=O)c4cn(C)c(=O)n(C)c4=O)c3Cl)c2C#N)cc2c1[C@@H](N[C@@H]1CCOC[C@@H]1O)CC2 (single isomer, unassigned) [Compound A-73] | 10 to 100 |
| COc1nc(-c2cccc(-c3cccc(NC(=O)c4nn(C)c(=O)n(C)c4=O)c3Cl)c2Cl)cc2c1[C@@H](N[C@@H]1CCOC[C@@H]1O)CC2 (single isomer, unassigned) [Compound A-76] | ≤ 10 |
| COc1nc(-c2cccc(-c3cccc(NC(=O)c4nn(C)c(=O)n(C)c4=O)c3C)c2Cl)cc2c1[C@@H](N[C@@H]1CCOC[C@@H]1O)CC2 (single isomer, unassigned) [Compound A-77] | ≤ 10 |
| COc1nc(-c2cccc(-c3cccc(NC(=O)c4cn(C)c(=O)n(C)c4=O)c3C)c2Cl)cc2c1[C@@H](NC[C@@H]1CCC(=O)N1)C(C)(C)C2 (single isomer, unassigned) [Compound A-123] | > 5000 |
| COc1nc(-c2cccc(-c3cccc(NC(=O)c4cn(C)c(=O)n(C)c4=O)c3C)c2Cl)cc2c1[C@H](NC[C@@H]1CCC(=O)N1)C(C)(C)C2 (single isomer, unassigned) [Compound A-124] | 1000 to 10000 |
| COc1nc(-c2cccc(-c3cccc(NC(=O)c4cn(C)c(=O)n(C)c4=O)c3C)c2Cl)cc2c1[C@H](NC[C@@H]1CNC(=O)C1)CC2 (single isomer, unassigned) [Compound A-138] | ≤ 10 |
| COc1nc(-c2cccc(-c3cccc(NC(=O)c4cn(C)c(=O)n(C)c4=O)c3C)c2Cl)cc2c1[C@@H](N1CC3(CCC(=O)N3)C1)CC2 (single isomer, unassigned) [Compound A-139] | ≤ 10 |
| COc1nc(-c2cccc(-c3cccc(NC(=O)c4cn(C)c(=O)n(C)c4=O)c3F)c2F)cc2c1[C@@H](NC[C@@H]1CCC(=O)N1)CC2 [Compound A-9] | 10 to 100 |
| COc1cc(-c2cccc(-c3cccc(NC(=O)c4cn(C)c(=O)n(C)c4=O)c3Cl)c2Cl)cc2c1CC(NC[C@@H]1CCC(=O)N1)C2 (some centres unmarked) [Compound A-48] | 100 to 1000 |
| COc1nc(-c2cccc(-c3cccc(NC(=O)c4cn(C)c(=O)n(C)c4=O)c3Cl)c2C#N)cc2c1[C@@H](NC[C@@H]1CCC(=O)N1)CC2 [Compound A-50] | 10 to 100 |
| COc1nc(-c2ccc(F)c(-c3cccc(NC(=O)c4cn(C)c(=O)n(C)c4=O)c3C)c2F)cc2c1[C@H](N1CC(O)C1)CC2 [Compound A-81] | 10 to 100 |
| COc1nc(-c2cccc(-c3cccc(NC(=O)c4cn(C)c(=O)n(C)c4=O)c3Cl)c2Cl)cc2c1C(N[C@H]1CCOC[C@@H]1O)CC2 (stereo partly drawn) [Compound D-8a] | 10 to 100 |
| COc1nc(-c2cccc(-c3cccc(NC(=O)c4cn(C)c(=O)n(C)c4=O)c3C)c2Cl)cc2c1C(NCC(=O)O)CC2 [Compound D-12] | 10 to 100 |
| COc1nc(-c2cccc(-c3cccc(NC(=O)c4cn(C)c(=O)n(C)c4=O)c3C)c2Cl)cc2c1C(NCC(=O)N1CCCC1)CC2 [Compound D-13] | 10 to 100 |
| COc1nc(-c2cccc(-c3cccc(NC(=O)c4cn(C)c(=O)n(C)c4=O)c3Cl)c2Cl)cc2c1C(N1CC3(CNC(=O)C3)C1)CC2 [Compound D-14] | ≤ 10 |
| COc1nc(-c2cccc(-c3cccc(NC(=O)c4cn(C)c(=O)n(C)c4=O)c3C)c2Cl)cc2c1[C@@H](N(C)C[C@@H]1CCC(=O)N1)CC2 [Compound I-1] | ≤ 10 |

same assay, conditions: co-culture 6 hrs at 37° C., NFAT-mediated luciferase activity

| Compound | EC50 [nM] |
| --- | --- |
| COc1nc(-c2ccc(F)c(-c3cccc(NC(=O)c4cn(C)c(=O)n(C)c4=O)c3C)c2F)cc2c1[C@H](N1CC(O)C1)CC2 [Compound A-82] | 10 to 100 |
